Drawing on ChEMBL document CHEMBL2057064, “Activation of human RNase L by 2'- and 5'-O-methylphosphonate-modified oligoadenylates” (Bioorg Med Chem Lett, 2012), this text covers inhibition for ten compounds.

Molecules are shown by their SMILES. Active and inactive are the calls of the source. No cut-off for these calls is given here.

This assay has as its target T1, 2-5A-dependent ribonuclease (Homo sapiens) (UniProt Q05823).
T1 sequence (whole entry): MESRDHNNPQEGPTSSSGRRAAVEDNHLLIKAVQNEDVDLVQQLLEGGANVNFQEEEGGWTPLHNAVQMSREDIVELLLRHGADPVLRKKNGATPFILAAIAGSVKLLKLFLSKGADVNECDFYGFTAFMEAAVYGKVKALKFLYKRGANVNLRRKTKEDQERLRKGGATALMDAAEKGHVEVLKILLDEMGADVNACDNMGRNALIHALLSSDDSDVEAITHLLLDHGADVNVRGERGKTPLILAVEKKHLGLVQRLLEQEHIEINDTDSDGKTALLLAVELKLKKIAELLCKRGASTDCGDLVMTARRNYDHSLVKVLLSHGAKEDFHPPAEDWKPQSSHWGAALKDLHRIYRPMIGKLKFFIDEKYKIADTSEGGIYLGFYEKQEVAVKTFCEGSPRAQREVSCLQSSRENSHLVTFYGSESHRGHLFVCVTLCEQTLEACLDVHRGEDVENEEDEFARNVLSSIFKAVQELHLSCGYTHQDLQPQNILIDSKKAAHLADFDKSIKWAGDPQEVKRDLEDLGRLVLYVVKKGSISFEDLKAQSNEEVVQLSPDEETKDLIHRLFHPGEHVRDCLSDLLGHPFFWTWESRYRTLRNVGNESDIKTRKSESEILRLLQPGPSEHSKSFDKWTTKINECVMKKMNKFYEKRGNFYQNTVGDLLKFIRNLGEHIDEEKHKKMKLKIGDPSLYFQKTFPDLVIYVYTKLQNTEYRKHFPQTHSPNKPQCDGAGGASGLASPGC
The experiment in a line: Antagonist activity at human RNase L expressed in Escherichia coli BL21 (DE3) cells assessed as RNA cleavage using Cy5-C11-rUU-C7-BHQ2 as substrate by FRET assay in presence of natural activator pAAAA. The assay is classed as functional.
With `Nc1ncnc2c1ncn2[C@@H]1O[C@H](COCP(=O)(O)O[C@@H]2[C@H](O)[C@@H](COCP(=O)(O)O[C@@H]3[C@H](O)[C@@H](COP(=O)(O)O[C@@H]4[C@H](O)[C@@H](COP(=O)(O)O)O[C@H]4n4cnc5c(N)ncnc54)O[C@H]3n3cnc4c(N)ncnc43)O[C@H]2n2cnc3c(N)ncnc32)[C@@H](O)[C@H]1O`, the inhibition entry was “inactive”.
Under `Nc1ncnc2c1ncn2[C@@H]1O[C@H](COCP(=O)(O)O[C@@H]2[C@H](O)[C@@H](COP(=O)(O)O[C@@H]3[C@H](O)[C@@H](COCP(=O)(O)O[C@@H]4[C@H](O)[C@@H](COP(=O)(O)O)O[C@H]4n4cnc5c(N)ncnc54)O[C@H]3n3cnc4c(N)ncnc43)O[C@H]2n2cnc3c(N)ncnc32)[C@@H](O)[C@H]1O` stands “inactive”; under `Nc1ncnc2c1ncn2[C@@H]1O[C@H](COP(=O)(O)O[C@@H]2[C@H](O)[C@@H](COP(=O)(O)O[C@@H]3[C@@H](O)[C@@H](COCP(=O)(O)O[C@@H]4[C@@H](O)[C@@H](COCP(=O)(O)O)O[C@H]4n4cnc5c(N)ncnc54)O[C@H]3n3cnc4c(N)ncnc43)O[C@H]2n2cnc3c(N)ncnc32)[C@@H](O)[C@H]1O`, “inactive”.
Regarding `Nc1ncnc2c1ncn2[C@@H]1O[C@H](COCP(=O)(O)O[C@H]2[C@H](O)[C@@H](COCP(=O)(O)O[C@@H]3[C@H](O)[C@@H](COP(=O)(O)O[C@@H]4[C@H](O)[C@@H](COP(=O)(O)O)O[C@H]4n4cnc5c(N)ncnc54)O[C@H]3n3cnc4c(N)ncnc43)O[C@H]2n2cnc3c(N)ncnc32)[C@@H](O)[C@@H]1O`, the inhibition entry is “inactive”.
Then `Nc1ncnc2c1ncn2[C@@H]1O[C@H](COP(=O)(O)O[C@@H]2[C@H](O)[C@@H](COCP(=O)(O)O[C@@H]3[C@H](O)[C@@H](COCP(=O)(O)O[C@@H]4[C@H](O)[C@@H](COCP(=O)(O)O)O[C@H]4n4cnc5c(N)ncnc54)O[C@H]3n3cnc4c(N)ncnc43)O[C@H]2n2cnc3c(N)ncnc32)[C@@H](O)[C@H]1O`, with “inactive”.
Under `Nc1ncnc2c1ncn2[C@@H]1O[C@H](COCP(=O)(O)O[C@@H]2[C@H](O)[C@@H](COP(=O)(O)O[C@H]3[C@H](O)[C@@H](COCP(=O)(O)O[C@H]4[C@H](O)[C@@H](COCP(=O)(O)O)O[C@H]4n4cnc5c(N)ncnc54)O[C@H]3n3cnc4c(N)ncnc43)O[C@H]2n2cnc3c(N)ncnc32)[C@@H](O)[C@@H]1O` stands “inactive”; under `Nc1ncnc2c1ncn2[C@@H]1O[C@H](COCP(=O)(O)O[C@@H]2[C@H](O)[C@@H](COP(=O)(O)O[C@@H]3[C@@H](O)[C@@H](COCP(=O)(O)O[C@@H]4[C@H](O)[C@@H](COP(=O)(O)O)O[C@H]4n4cnc5c(N)ncnc54)O[C@H]3n3cnc4c(N)ncnc43)O[C@H]2n2cnc3c(N)ncnc32)[C@H](O)[C@H]1O`, “inactive”; under `Nc1ncnc2c1ncn2[C@@H]1O[C@H](COCP(=O)(O)O[C@@H]2[C@H](O)[C@@H](COP(=O)(O)O[C@@H]3[C@H](O)[C@@H](COCP(=O)(O)O[C@@H]4[C@H](O)[C@@H](COCP(=O)(O)O)O[C@H]4n4cnc5c(N)ncnc54)O[C@H]3n3cnc4c(N)ncnc43)O[C@H]2n2cnc3c(N)ncnc32)[C@@H](O)[C@H]1O`, “inactive”.
For `Nc1ncnc2c1ncn2[C@@H]1O[C@H](COCP(=O)(O)O[C@@H]2[C@@H](O)[C@@H](COCP(=O)(O)O[C@@H]3[C@H](O)[C@@H](COP(=O)(O)O[C@@H]4[C@H](O)[C@@H](COP(=O)(O)O)O[C@H]4n4cnc5c(N)ncnc54)O[C@H]3n3cnc4c(N)ncnc43)O[C@H]2n2cnc3c(N)ncnc32)[C@H](O)[C@H]1O`, the inhibition entry is “inactive”.
For `Nc1ncnc2c1ncn2[C@@H]1O[C@H](COP(=O)(O)O[C@@H]2[C@@H](O)[C@@H](COCP(=O)(O)O[C@@H]3[C@@H](O)[C@@H](COCP(=O)(O)O[C@@H]4[C@H](O)[C@@H](COP(=O)(O)O)O[C@H]4n4cnc5c(N)ncnc54)O[C@H]3n3cnc4c(N)ncnc43)O[C@H]2n2cnc3c(N)ncnc32)[C@@H](O)[C@H]1O`, the inhibition entry was “inactive”.
